IC50 data for 2 molecules are collected here from ChEMBL document CHEMBL1140542, “Cryptadines A and B, novel C27N3-type pentacyclic alkaloids from Lycopodium cryptomerinum” (Bioorg Med Chem, 2007).

SMILES strings stand for the structures.

The target in the experiment is T1, Acetylcholinesterase (Bos taurus, UniProt P23795).
T1 sequence (P23795 whole entry): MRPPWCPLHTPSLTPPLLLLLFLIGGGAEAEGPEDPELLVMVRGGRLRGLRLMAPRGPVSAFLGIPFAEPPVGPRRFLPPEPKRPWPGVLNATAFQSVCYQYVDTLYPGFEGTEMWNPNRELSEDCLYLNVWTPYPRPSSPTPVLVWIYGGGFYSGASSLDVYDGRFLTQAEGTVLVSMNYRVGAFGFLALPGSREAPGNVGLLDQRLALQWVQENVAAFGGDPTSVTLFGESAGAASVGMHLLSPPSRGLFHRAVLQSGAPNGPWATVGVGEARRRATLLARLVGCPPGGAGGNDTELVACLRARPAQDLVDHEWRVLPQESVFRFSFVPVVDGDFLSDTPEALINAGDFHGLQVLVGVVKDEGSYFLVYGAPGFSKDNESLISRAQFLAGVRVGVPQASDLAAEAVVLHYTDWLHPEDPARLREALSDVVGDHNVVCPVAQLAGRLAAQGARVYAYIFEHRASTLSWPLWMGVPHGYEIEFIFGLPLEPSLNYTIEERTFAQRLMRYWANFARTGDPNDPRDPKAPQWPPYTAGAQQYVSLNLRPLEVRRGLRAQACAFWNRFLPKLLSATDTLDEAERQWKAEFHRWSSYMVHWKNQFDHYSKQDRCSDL
As to the kind of experiment: Inhibition of bovine acetylcholinesterase.

The term IC50 denotes the concentration at which inhibition is half-maximal. On to `CC(=O)N1CCCC2=C(C[C@H]3CCC[C@H](CC4=C5CCCN(C)[C@H]5C[C@@H](C)C4)N3)C[C@H](C)C[C@@H]21` [CRYPTADINE A], for which the IC50 amounted to 106 µM.
The same measure for `CC(=O)N1CCCC2=C(C[C@H]3CCC[C@H](CC4=C5CCCN(C)[C@H]5C[C@H](C)C4)N3)C[C@H](C)C[C@@H]21` [CRYPTADINE B]: 18.5 µM.
